# Experimental data: ChEMBL document CHEMBL6177953, “Discovery of a novel quinoxaline derivative modulator via a dual P53/TLR2 targeting strategy for the alleviation of radiation damage” (Eur J Med Chem, 2025)
# Calls of active or inactive are those of the source. The rule behind the calls is not given here.
# How the values were obtained:
# AHH-1 [1] = test: Cytotoxicity against human AHH-1 cells incubated for 24 to 96 hrs by CCK-8 assay; assay type: functional, cell-based
# [2] = Cytotoxicity against HUVEC incubated for 24 to 96 hrs by CCK-8 assay; assay type: toxicity, cell-based; conditions: human, HUVEC cells
# AHH-1 [3] = test: Antiradiation activity in human AHH-1 cells assessed as increase in cell viability at 2.5 to 10 micromol/L pre-treated with compound for 24 hrs followed by irradiation at 4 Gy measured after 24 hrs by CCK-8 assay; assay type: functional, cell-based; conditions: dose 2.5-10 µmol/L, time 48.0 hrs
# AHH-1 [4] = test: Antiradiation activity in human AHH-1 cells assessed as increase in cell viability at 2.5 micromol/L pre-treated with compound for 24 hrs followed by irradiation at 4 Gy measured after 24 hrs by CCK-8 assay; assay type: functional, cell-based; conditions: dose 2.5 µmol/L, time 48.0 hrs
# HUVEC [5] = test: Antiradiation activity in human HUVEC assessed as cell viability at 5 to 20 micromol/L pre-treated with compound for 24 hrs followed by irradiation at 6 Gy measured after 96 hrs by CCK-8 assay; assay type: functional, cell-based; conditions: dose 5-20 µmol/L, time 120.0 hrs
# Mus musculus [6] = test: Radioprotective activity in male C57BL/6J mouse assessed as survival rate at 250 mg/kg, ip pre-treated with compound for 24.25 hrs followed by irradiation at 8.5 Gy and measured for 30 days post irradiation relative to control; assay type: functional; conditions: time 744.25 hrs
# Mus musculus [7] = test: Radioprotective activity in male C57BL/6J mouse assessed as increase in body weight at 250 mg/kg, ip pre-treated with compound for 24.25 hrs followed by irradiation at 8.5 Gy and measured on day 1 post irradiation; assay type: functional, organism-based; conditions: time 48.25 hrs
# Mus musculus [8] = test: Radioprotective activity in male C57BL/6J mouse assessed as increase in body weight at 250 mg/kg, ip pre-treated with compound for 24.25 hrs followed by irradiation at 8.5 Gy and measured on day 18 post irradiation; assay type: functional, organism-based; conditions: time 456.25 hrs
# Mus musculus [9] = test: Radioprotective activity in male C57BL/6J mouse assessed as increase in cell growth at 250 to 300 mg/kg, ip pre-treated with compound for 24.25 hrs followed by irradiation at 6.5 Gy and measured on 30 day post irradiation; assay type: functional, organism-based; conditions: dose 250-300 mg/kg, time 744.25 hrs
# Mus musculus [10] = test: Radioprotective activity in male C57BL/6J mouse assessed as time required to increase in WBC count at 250 mg/kg, ip pre-treated with compound for 24.25 hrs followed by irradiation at 6.5 Gy and measured on 30 day post irradiation; assay type: functional; conditions: time 744.25 hrs
# Mus musculus [11] = test: Radioprotective activity in male C57BL/6J mouse assessed as time required to increase in RBC count at 250 mg/kg, ip pre-treated with compound for 24.25 hrs followed by irradiation at 6.5 Gy and measured on 30 day post irradiation; assay type: functional; conditions: time 744.25 hrs
# Mus musculus [12] = test: Radioprotective activity in male C57BL/6J mouse assessed as time required to increase in neutrophil count at 250 mg/kg, ip pre-treated with compound for 24.25 hrs followed by irradiation at 6.5 Gy and measured on 30 day post irradiation; assay type: functional; conditions: time 744.25 hrs
# Mus musculus [13] = test: Radioprotective activity in male C57BL/6J mouse assessed as time required to increase in platelets at 250 mg/kg, ip pre-treated with compound for 24.25 hrs followed by irradiation at 6.5 Gy and measured on 30 day post irradiation; assay type: functional; conditions: time 744.25 hrs
# Mus musculus [14] = test: Radioprotective activity in male C57BL/6J mouse assessed as increase in crypts villus length in mouse jejunum at 250 mg/kg, ip pre-treated with compound for 24.25 hrs followed by irradiation at 13 Gy and measured on 3.5 day post irradiation; assay type: functional, organism-based; conditions: time 108.25 hrs
# Mus musculus [15] = test: Radioprotective activity in male C57BL/6J mouse assessed as attenuation of spleen atrophy at 250 mg/kg, ip pre-treated with compound for 24.25 hrs followed by irradiation at 13 Gy and measured on 3.5 day post irradiation; assay type: functional, organism-based; conditions: time 108.25 hrs
# AHH-1 [16] = test: Induction of apoptosis in human AHH-1 cells assessed as viable cells pre-treated with compound for 24 hrs followed by irradiation at 6 Gy and measured after 24 hrs by Annexin V-FITC/PI staining based Flow cytometry analysis (reference value: 83.6%); assay type: functional; conditions: time 48 hrs
# AHH-1 [17] = test: Induction of apoptosis in human AHH-1 cells assessed as early apoptotic cells pre-treated with compound for 24 hrs followed by irradiation at 6 Gy and measured after 24 hrs by Annexin V-FITC/PI staining based Flow cytometry analysis (reference value: 8.15%); assay type: functional; conditions: time 48 hrs
# AHH-1 [18] = test: Induction of apoptosis in human AHH-1 cells assessed as late apoptotic cells pre-treated with compound for 24 hrs followed by irradiation at 6 Gy and measured after 24 hrs by Annexin V-FITC/PI staining based Flow cytometry analysis (reference value: 2.65%); assay type: functional; conditions: time 48 hrs
# AHH-1 [19] = test: Induction of apoptosis in human AHH-1 cells assessed as necrotic cells pre-treated with compound for 24 hrs followed by irradiation at 6 Gy and measured after 24 hrs by Annexin V-FITC/PI staining based Flow cytometry analysis (reference value: 5.37%); assay type: functional; conditions: time 48 hrs
# AHH-1 [20] = test: Radioprotective activity against 6 Gy radiation-induced DNA damage in human AHH-1 cells assessed as attenuation of gamma-H2AX expression incubated for 0.5 to 2 hrs by immunohistochemical staining based confocal fluorescence microscopic analysis; assay type: functional, cell-based; conditions: time 0.5-2 hrs
# AHH-1 [21] = test: Induction of DNA damage repair activity in 6 Gy radiation-induced human AHH-1 cells assessed as downregulation of Bax level pre-treated with compound for 24 hrs followed by irradiation by Co-immunoprecipitation analysis; assay type: functional, cell-based
# AHH-1 [22] = test: Induction of DNA damage repair activity in 6 Gy radiation-induced human AHH-1 cells assessed as downregulation of P53 level pre-treated with compound for 24 hrs followed by irradiation by Co-immunoprecipitation analysis; assay type: functional, cell-based
# HUVEC [23] = test: Upregulation of MyD88 expression in HUVEC incubated for 24 hrs in presence of irradiation by Co-immunoprecipitation analysis; assay type: functional, cell-based; conditions: Homo sapiens
# HUVEC [24] = test: Upregulation of P65 expression in HUVEC incubated for 24 hrs in presence of irradiation by Co-immunoprecipitation analysis; assay type: functional, cell-based; conditions: Homo sapiens
# HUVEC [25] = test: Upregulation of IL-6 secretion in HUVEC at 20 to 80 uM incubated for 24 hrs in presence of irradiation by ELISA; assay type: functional, cell-based; conditions: Homo sapiens, dose 20-80 µM
# Toll-like receptor 2 [26] = biological target: T1, Toll-like receptor 2 (Homo sapiens, UniProt O60603); test: Binding affinity to TLR2 (unknown origin) assessed as dissociation constant by SPR analysis
# T1 sequence (O60603 whole entry): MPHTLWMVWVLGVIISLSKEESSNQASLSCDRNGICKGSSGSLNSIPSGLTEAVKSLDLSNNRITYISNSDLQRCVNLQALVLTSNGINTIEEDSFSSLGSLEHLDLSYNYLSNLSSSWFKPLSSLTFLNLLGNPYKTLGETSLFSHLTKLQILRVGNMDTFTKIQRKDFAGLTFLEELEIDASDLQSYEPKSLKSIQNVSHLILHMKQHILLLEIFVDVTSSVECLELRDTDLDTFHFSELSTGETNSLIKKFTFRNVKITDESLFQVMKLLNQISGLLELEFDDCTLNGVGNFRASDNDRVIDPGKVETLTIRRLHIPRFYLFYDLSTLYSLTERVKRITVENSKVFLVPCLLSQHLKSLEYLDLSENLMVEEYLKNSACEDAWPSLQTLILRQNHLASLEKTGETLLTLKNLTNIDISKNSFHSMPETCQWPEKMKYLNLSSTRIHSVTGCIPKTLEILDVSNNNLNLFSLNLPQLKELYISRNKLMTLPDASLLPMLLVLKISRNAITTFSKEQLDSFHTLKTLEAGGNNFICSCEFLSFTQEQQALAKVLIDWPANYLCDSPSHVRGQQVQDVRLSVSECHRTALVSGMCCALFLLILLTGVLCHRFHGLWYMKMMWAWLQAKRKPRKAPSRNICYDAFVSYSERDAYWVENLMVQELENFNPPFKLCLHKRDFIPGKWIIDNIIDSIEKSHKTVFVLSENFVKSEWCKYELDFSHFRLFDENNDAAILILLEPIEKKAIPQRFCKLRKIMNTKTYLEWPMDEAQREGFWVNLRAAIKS
# Toll-like receptor 2 [27] = biological target: T1, Toll-like receptor 2; test: Binding affinity to TLR2 (unknown origin) by SPR analysis; conditions: filed as modulator, dose 312.5-10000 nM
# AHH-1 [28] = test: Antiradiation activity in human AHH-1 cells assessed as increase in cell viability at 2.5 to 10 micromol/L pre-treated with compound for 24 hrs followed by irradiation at 6 Gy measured after 24 hrs by CCK-8 assay; assay type: functional, cell-based; conditions: dose 2.5-10 µmol/L, time 48.0 hrs
# AHH-1 [29] = test: Antiradiation activity in human AHH-1 cells assessed as increase in cell viability at 2.5 to 10 micromol/L pre-treated with compound for 24 hrs followed by irradiation at 8 Gy measured after 24 hrs by CCK-8 assay; assay type: functional, cell-based; conditions: dose 2.5-10 µmol/L, time 48.0 hrs
# AHH-1 [30] = test: Antiradiation activity in human AHH-1 cells assessed as increase in cell viability at 2.5 micromol/L pre-treated with compound for 24 hrs followed by irradiation at 6 Gy measured after 24 hrs by CCK-8 assay; assay type: functional, cell-based; conditions: dose 2.5 µmol/L, time 48.0 hrs
# AHH-1 [31] = test: Antiradiation activity in human AHH-1 cells assessed as increase in cell viability at 2.5 micromol/L pre-treated with compound for 24 hrs followed by irradiation at 8 Gy measured after 24 hrs by CCK-8 assay; assay type: functional, cell-based; conditions: dose 2.5 µmol/L, time 48.0 hrs
# HUVEC [32] = test: Antiradiation activity in human HUVEC assessed as cell viability at 5 to 20 micromol/L pre-treated with compound for 24 hrs followed by irradiation at 8 Gy measured after 96 hrs by CCK-8 assay; assay type: functional, cell-based; conditions: dose 5-20 µmol/L, time 120.0 hrs
smiles,measurement,setting,value
N#Cc1ccc(CS(=O)(=O)c2cnc3ccccc3n2)cc1,IC50,AHH-1 [1],> 60 µM
same,IC50,[2],> 60 µM
same,Activity,AHH-1 [3],Active
same,Activity,AHH-1 [4],Active
same,Activity,HUVEC [5],Active
same,Activity,Mus musculus [6],100%
same,Activity,Mus musculus [7],inactive
same,Activity,Mus musculus [8],Active; Compound Showed Significant Regaining Effect
same,Activity,Mus musculus [9],Active
same,Time,Mus musculus [10],10 days
same,Time,Mus musculus [11],14 days
same,Time,Mus musculus [12],14 days
same,Time,Mus musculus [13],14 days
same,Activity,Mus musculus [14],Active
same,Activity,Mus musculus [15],Active
same,Activity,AHH-1 [16],72%
same,Activity,AHH-1 [17],13.1%
same,Activity,AHH-1 [18],6.07%
same,Activity,AHH-1 [19],8.81%
same,Activity,AHH-1 [20],Active
same,Activity,AHH-1 [21],Active
same,Activity,AHH-1 [22],Active
same,Activity,HUVEC [23],Active
same,Activity,HUVEC [24],Active
same,Activity,HUVEC [25],Active
same,Kd,Toll-like receptor 2 [26],3.93 µM
same,Activity,Toll-like receptor 2 [27],Dose-dependent-effect
same,Activity,AHH-1 [28],Active
same,Activity,AHH-1 [29],Active
same,Activity,AHH-1 [30],Active
same,Activity,AHH-1 [31],Active
same,Activity,HUVEC [32],Active
